The nature of data set [1]: Aqueous solubility assay, Protocol A, nephelometry method. It counts as physicochemical. To be noted: PBS with 5% DMSO, aqueous with cosolvent or surfactant or cyclodextrin, kinetic from dmso stock, PBS pH 7.4, 5% DMSO, 23° C., 24 hours, read-out: Aqueous solubility pH 7.4. An outline of the steps: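 PBS pH 7.4 with 5% DMSO at 23° C; compounds diluted from 10 mM DMSO stock to final 100, 70, 50, 35, 25, 17, 12 and <10 μg/ml. Equilibrated 24 h at room temperature, then solubility read by nephelometric light scattering; acetylsalicylic acid served as validation compound.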

Data set [2] can be described thus: Rat hepatocyte stability assay. The class given is in vitro ADME. To be noted: hepatocytes, 37° C., 60 minute, read-out: Rat hepatocyte clearance. As for the experimental part:
Compound stability towards rat hepatocytes was determined as follows: The hepatocytes are incubated with the test compound at 37° C. Samples are removed at the appropriate time points into methanol to terminate the reaction. Following centrifugation, the supernatant is analysed by LC-MS/MS. The disappearance of test compound is monitored over a 60 minute time period. The In peak area ratio (compound peak area/internal standard peak area) is plotted against time and the gradient of the line determined. Finally, half life t1/2 and Intrinsic clearance CLint is computed by the following equations: elimination rate konstant (k)=−gradient; t1/2 (min)=0.693/k; V (μl/10^6 cells)=volume of incubation (μl)/number of cells (*10^6); CLint (μl/min/10^6cells protein)=V*0.693/t1/2.

In data set [3] the target is T1, human FXRalpha ligand binding domain (LBD) (Homo sapiens, UniProt Q96RI1).
T1 construct: made in house; host or cells: E. coli BL21(DE3), vector pDEST15
T1 sequence (Q96RI1 187-472 isoform Q96RI1-2): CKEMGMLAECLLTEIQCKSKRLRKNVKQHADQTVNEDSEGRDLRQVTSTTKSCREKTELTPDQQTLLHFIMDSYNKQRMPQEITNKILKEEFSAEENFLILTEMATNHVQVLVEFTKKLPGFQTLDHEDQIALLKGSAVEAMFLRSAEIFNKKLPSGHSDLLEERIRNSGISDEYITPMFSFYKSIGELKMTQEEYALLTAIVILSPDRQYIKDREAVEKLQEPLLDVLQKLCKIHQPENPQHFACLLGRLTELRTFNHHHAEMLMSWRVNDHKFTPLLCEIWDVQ
In words: FRET activity assay (ligand mediated cofactor peptide interaction, LANCE). The class given is biochemical. To be noted: GST-FXR-LBD / biotinylated SRC-1 peptide (676-700). The essentials: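 GST-tagged human FXRα LBD (aa 187-472) from E. coli, with biotinylated SRC-1 peptide 676-700 (200-600 nM), Eu anti-GST and streptavidin-APC in Tris pH 7.5 buffer, 1% DMSO. One hour at room temperature in the dark, then time-resolved FRET read as the 665/615 nm ratio.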
In general terms: In TR-FRET formats the signal depends on donor and acceptor labels being close together.

The solubility is how much of the substance goes into solution per volume. In the case of `CC(C)c1onc(-c2c(Cl)cccc2Cl)c1COc1ccc(/C=C/c2cccc(C(=O)O)c2)c(Cl)c1` [Compound B, reference compound], the solubility at 24 h in data set [1] was less than 2 µM. Further, the hepatocyte CLint in data set [2] turned out to be 45 µL/min/1e6 cells.

By IC50 is commonly meant the concentration that inhibits the measured activity by half. Read a high IC50 as weaker potency. With `Cc1nc(OCc2c(-c3c(Cl)cccc3Cl)noc2C(C)C)ccc1N(C)S(=O)(=O)c1ccc(C(=O)O)cc1` [Example 4, 4-(N-(6-((3-(2,6-dichlorophenyl)-5-isopropylisoxazol-4-yl)methoxy)-2-methylpyridin-3-yl)—N-methylsulfamoyl)benzoic acid], the IC50 in data set [3] was no more than 1000 nM. In addition, in data set [1], the solubility at 24 h is greater than 100 µM. In addition, the hepatocyte CLint in data set [2] was 7.1 µL/min/1e6 cells.

As for `CC(C)c1onc(-c2c(Cl)cccc2Cl)c1COc1ccc(N(C)C(=O)c2ccc(C(=O)O)cc2)c(C(F)(F)F)n1` [Example 7, N-{6-[3-(2,6-dichloro-phenyl)-5-isopropyl-isoxazol-4-ylmethoxy]-2-trifluoromethyl-pyridin-3-yl}-N-methyl-terephthalamic acid], in data set [3], the half-inhibitory concentration (IC50) was no more than 1000 nM. Moreover, the solubility at 24 h in data set [1] was greater than 100 µM. The hepatocyte CLint in data set [2] was found to be 0.7 µL/min/1e6 cells.

On to `CC(C)c1onc(-c2c(Cl)cccc2Cl)c1COc1ccc(N(C)Cc2ccc(C(=O)O)cc2)c(C(F)(F)F)n1` [Example 28, 4(((6-((3-(2,6-Dichlorophenyl)-5-isopropylisoxazol-4-yl)methoxy)-2-(trifluoromethyl)pyridin-3-yl)(methyl)amino)methyl)benzoic acid], for which, in data set [3], the half-maximal inhibitory concentration (IC50) is no more than 1000 nM.

The record behind these values is patent US20100184809A1, “Heterocyclic FXR Binding Compounds” (PHENEX PHARMACEUTICALS AG, priority 2006, published 2010).
